In patent US20250345329A1, “HETEROARYL DERIVATIVE COMPOUND AND USES THEREOF” (VORONOI, INC., priority 2022, published 2025):

Tests used:
[1] = target: T1, human EGFR (d746-750/T790M/C797S) (Homo sapiens, UniProt P00533, C797S/DEL746-750/T790M); assay: EGFR C797S enzyme inhibition activity (ADP-Glo kinase assay); assay type: biochemical; conditions: purified enzyme 3 ng, ATP 5 μM, 25° C., 1 hour, luminescence; read-out: EGFR DTC Enzyme IC50
T1 construct: human EGFR (d746-750/T790M/C797S) (668-end, SignalChem); purchased SignalChem
Procedure, shortened: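 Kinase construct 668-end (3 ng) was incubated with 5 μM ATP and 0.2 μg substrate in Tris pH 7.4 buffer for 1 h at 25° C. ADP-Glo luminescence was read over 12 final compound concentrations from 10 μM down to 0. IC50 was taken as 50% inhibition relative to the solvent control.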

[2] = system: Ba/F3 expressing EGFR Del19/T790M/C797S mutations; assay: Inhibitory activity on proliferation of Ba/F3 cell overexpressing EGFR C797S (Cell Titer-Glo); assay type: cell-based; conditions: Mus musculus, BaF3; 72 hours treatment, cell growth rate vs control; read-out: Ba/F3 (EGFR DTC) GI50
Procedure, shortened: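 Ba/F3 cells with EGFR Del19/T790M/C797S in RPMI-1640 + 10% FBS were seeded (3000/well) 24 h before 72 h compound exposure at 37 °C. Compounds were tested in a 12-point 3-fold series, final […]–5 μM. CellTiter-Glo luminescence gave growth % versus control, from which GI50 was derived.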

T1 sequence (P00533 with tags, fused parts or gaps DEL746-750/T790M/C797S): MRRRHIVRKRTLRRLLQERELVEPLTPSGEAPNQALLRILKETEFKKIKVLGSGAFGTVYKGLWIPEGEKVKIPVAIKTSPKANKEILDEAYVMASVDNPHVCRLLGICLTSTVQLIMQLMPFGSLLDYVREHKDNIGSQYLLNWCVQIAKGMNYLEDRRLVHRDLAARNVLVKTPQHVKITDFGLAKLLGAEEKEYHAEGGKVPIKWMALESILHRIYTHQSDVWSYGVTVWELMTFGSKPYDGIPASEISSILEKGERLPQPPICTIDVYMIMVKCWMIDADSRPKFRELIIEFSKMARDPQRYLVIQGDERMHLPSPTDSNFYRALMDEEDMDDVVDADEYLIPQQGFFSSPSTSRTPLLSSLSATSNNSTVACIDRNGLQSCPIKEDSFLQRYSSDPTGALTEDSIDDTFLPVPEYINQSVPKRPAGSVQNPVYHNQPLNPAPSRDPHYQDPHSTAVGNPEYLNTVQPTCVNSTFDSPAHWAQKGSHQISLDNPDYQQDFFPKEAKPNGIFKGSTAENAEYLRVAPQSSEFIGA

CC(C)Nc1cc(Nc2ccnc(-c3cnn(S(=O)(=O)C4CC4)c3)n2)ncc1C(=O)NCC#N [Example 72, N-(cyanomethyl)-6-((2-(1-(cyclopropylsulfonyl)-1H-pyrazol-4-yl)pyrimidin-4-yl)amino)-4-(isoporpylamino)nico-tinamide]
IC50 [1]: < 50 nM | GI50 [2]: < 500 nM

CC(C)Nc1cc(Nc2ccnc(-c3cnn(S(=O)(=O)C4CC4)c3)n2)ncc1C(=O)NCCS(=O)(=O)N(C)C [Example 73, 6-((2-(1-(cyclopropylsulfonyl)-1H-pyrazol-4-yl)pyrimidin-4-yl)amino)-N-(2-(N,N-dimethylsulfamoyl)eth-yl)-4-(isopropylamino)nico-tinamide]
IC50 [1]: < 50 nM | GI50 [2]: 500 to 5000 nM

CC(C)Nc1cc(Nc2ccnc(-c3cnn(S(=O)(=O)C4CC4)c3)n2)ncc1C(=O)NCCS(=O)(=O)C(C)C [Example 74, 6-((2-(1-(cyclopropylsulfonyl)-1H-pyrazol-4-yl)pyrimidin-4-yl)amino)-4-(isopropylamino)-N-(2-(isopropylsulfonyl)eth-yl)nicotinamide]
IC50 [1]: < 50 nM | GI50 [2]: 500 to 5000 nM

CC(C)Nc1cc(Nc2ccnc(-c3cnn(S(=O)(=O)C4CC4)c3)n2)ncc1C(=O)NC[C@@H]1CCCN1 [Example 76, (S)-6-((2-(1-(cyclopropylsulfonyl)-1H-pyrazol-4-yl)pyrimidin-4-yl)amino)-4-(isopropylamino)-N-(pyrrolidin-2-ylmethyl)nicotinamide]
IC50 [1]: < 50 nM | GI50 [2]: 500 to 5000 nM

CC(C)Nc1cc(Nc2ccnc(-c3cnn(S(=O)(=O)C4CC4)c3)n2)ncc1C(=O)NCC(F)(F)F [Example 78, 6-((2-(1-(cyclopropylsulfonyl)-1H-pyrazol-4-yl)pyrimidin-4-yl)amino)-4-(isopropylamino)-N-(2,2,2-trifluoroethyl)nicotin-amide]
IC50 [1]: < 50 nM | GI50 [2]: 500 to 5000 nM

CC(C)Nc1cc(Nc2ccnc(-c3cnn(S(=O)(=O)C4CC4)c3)n2)ncc1C(=O)N[C@@H](C(C)C)C(F)(F)F [Example 79, (S)-6-((2-(1-(cyclopropylsulfonyl)-1H-pyrazol-4-yl)pyrimidin-4-yl)amino)-4-(isopropylamino)-N-(1,1,1-trifluoro-3-methylbutan-2-yl)nicotinamide]
IC50 [1]: 50 to 500 nM | GI50 [2]: 500 to 5000 nM

C[C@H]1CCOc2c(cnn2C)-c2nccc(n2)Nc2cc(c(C(=O)NCC#N)cn2)N1 [Example 80, (S)-N-(cyanomethyl)-1^1,6-dimethyl-1^1H-9-oxa-3,5-diaza-2(2,4)-pyrimidina-4(2,4)-pyridina-1(4,5)-pyrazolacyclo-nonaphane-4^5-carboxamide]
IC50 [1]: < 50 nM | GI50 [2]: < 500 nM

CC(C)Nc1cc(Nc2ccnc(-c3cnn(S(=O)(=O)C4CC4)c3)n2)ncc1C(=O)NCCCC(F)(F)F [Example 81, 6-((2-(1-(cyclopropylsulfonyl)-1H-pyrazol-4-yl)pyrimidin-4-yl)amino)-4-(isopropylamino)-N-(4,4,4-trifluorobutyl)nicotin-amide]
IC50 [1]: < 50 nM | GI50 [2]: < 500 nM

CC(C)Nc1cc(Nc2ccnc(-c3cnn(S(=O)(=O)C4CC4)c3)n2)ncc1C(=O)NCCC(F)(F)F [Example 82, 6-((2-(1-(cyclopropylsulfonyl)-1H-pyrazol-4-yl)pyrimidin-4-yl)amino)-4-(isopropylamino)-N-(3,3,3-trifluoropropyl)nico-tinamide]
IC50 [1]: < 50 nM | GI50 [2]: < 500 nM

CC(C)Nc1cc(Nc2ccnc(-c3cnn(S(=O)(=O)C4CC4)c3)n2)ncc1C(=O)NCCN1CCOCC1 [Example 83, 6-((2-(1-(cyclopropylsulfonyl)-1H-pyrazol-4-yl)pyrimidin-4-yl)amino)-4-(isopropylamino)-N-(2-morpholinoethyl)nico-tinamide]
IC50 [1]: < 50 nM | GI50 [2]: < 500 nM

C[C@H]1CCOc2c(cnn2C)-c2nccc(n2)Nc2cc(c(C(=O)NCC3CCCC3)cn2)N1 [Example 86, (S)-N-(cyclopentylmethyl)-1^1,6-dimethyl-1^1H-9-oxa-3,5-diaza-2(2,4)-pyrimidina-4(2,4)-pyridina-1(4,5)-pyrazolacyclo-nonaphane-4^5-carboxamide]
IC50 [1]: < 50 nM | GI50 [2]: < 500 nM

CC(C)Nc1cc(Nc2ccnc(-c3cnn(S(=O)(=O)C4CC4)c3)n2)ncc1C(=O)NC1CC(F)(F)C1 [Example 99, 6-((2-(1-(cyclopropylsulfonyl)-1H-pyrazol-4-yL)pyrimidin-4-yl)amino)-N-(3,3-difluorocyclobutyl)-4-(isopropylamino)nico-tinamide]
IC50 [1]: 50 to 500 nM | GI50 [2]: < 500 nM

C[C@H]1CCOc2c(cnn2C)-c2nccc(n2)Nc2cc(c(C(=O)Nc3cccc(N4CCN(C)CC4)c3)cn2)N1 [Example 100, (S)-1^1,6-dimethyl-N-(3-(4-methylpiperazin-1-yl)phenyl)-1^1H-9-oxa-3,5-diaza-2(2,4)-pyrimidina-4(2,4)-pyridina-1(4.5)-pyrazolacyclo-nonaphane-4^5-carboxamide]
IC50 [1]: < 50 nM | GI50 [2]: < 500 nM

COC(=O)c1cnc2cc1N[C@@H](C)CCOc1c(cnn1C)-c1nccc(n1)N2 [Example 102, methyl(S)-1^1,6-dimethyl-1^1H-9-oxa-3,5-diaza-2(2,4)-pyrimidina-4(2,4)-pyridina-1(4,5)-pyrazolacyclo-nonaphane-4^5-carboxylate]
IC50 [1]: < 50 nM | GI50 [2]: < 500 nM

C[C@H]1CCOc2c(cnn2C)-c2nccc(n2)Nc2cc(c(C(=O)N3CC(CS(C)(=O)=O)C3)cn2)N1 [Example 105, (S)-(1^1,6-dimethyl-1^1H-9-oxa-3,5-diaza-2(2,4)-pyrimidina-4(2,4)-pyridina-1(4,5)-pyrazolacyclo-nonaphane-4^5-yl)(3-((methylsulfonyl)meth-yl)azetidin-1-yl)methanone]
IC50 [1]: < 50 nM | GI50 [2]: 500 to 5000 nM

C[C@H]1CCOc2c(cnn2C)-c2nccc(n2)Nc2cc(c(C(=O)NCCS(C)(=O)=O)cn2)N1 [Example 110, (S)-1^1,6-dimethyl-N-(2-(methylsulfonyl)ethyl)-1^1H-9-oxa-3,5-diaza-2(2,4)-pyrimidina-4(2,4)-pyridina-1(4,5)-pyrazolacyclo-nonaphane-4^5-carboxamide]
IC50 [1]: < 50 nM | GI50 [2]: 500 to 5000 nM

C[C@H]1CCOc2c(cnn2C)-c2cc(ccn2)Nc2ncc(C(=O)NCCC(F)(F)F)c(n2)N1 [Example 115, (S)-1^1,6-dimethyl-N-(3,3,3-trifluoropropyl)-1^1H-9-oxa-3,5-diaza-4(2,4)-pyrimidina-2(2,4)-pyridina-1(4,5)-pyrazolacyclo-nonaphane-4^5-carboxamide]
IC50 [1]: < 50 nM | GI50 [2]: < 500 nM

CC1CCCOc2c(cnn2C)-c2nccc(n2)Nc2cc(c(C(=O)NCCCC(F)(F)F)cn2)N1 (stereo not shown) [Example 116, 1^1,6-dimethyl-N-(4,4,4-trifluorobutyl)-1^1H-10-oxa-3,5-diaza-2(2,4)-pyrimidina-4(2,4)-pyridina-1(4,5)-pyrazolacyclo-decaphane-4^5-carboxamide]
IC50 [1]: < 50 nM | GI50 [2]: < 500 nM

C[C@H]1CCOc2c(cnn2C)-c2nccc(n2)Nc2cc(c(C(=O)NC3CCCC(C(F)(F)F)C3)cn2)N1 (stereo partly drawn) [Example 119, (6S)-1^1,6-dimethyl-N-(3-(trifluoroemthyl)cy-clohexyl)-1^1H-9-oxa-3,5-diaza-2(2,4)-pyrimidina-4(2,4)-pyridina-1(4,5)-pyrazolacyclo-nonaphane-4^5-carboxamide]
IC50 [1]: < 50 nM | GI50 [2]: < 500 nM

C[C@H]1CCOc2c(cnn2C)-c2nccc(n2)Nc2cc(c(C(=O)NC(CCN(C)C)c3ccccc3)cn2)N1 (stereo partly drawn) [Example 120, (6S)-N-(3-(dimethylamino)-1-phenylpropyl)-1^1,6-dimethyl-1^1H-9-oxa-3,5-diaza-2(2,4)-pyrimidina-4(2,4)-pyridina-1(4,5)-pyrazolacyclo-nonaphane-4^5-carboxamide]
IC50 [1]: < 50 nM | GI50 [2]: 500 to 5000 nM
